Measured values published in patent EP0193944A1, “Derivatives of 5-fluorouracil” (Nippon Kayaku Kabushiki Kaisha, priority 1985, dated 1986).

Test system: murine leukemia P388
Assay: Antitumor effect to murine leukemia P388 (survival of implanted mice, oral dosing)
Assay type: in vivo
Conditions: for Survival Rate (T/C x 100): orally once daily for 5 consecutive days, female CDF1-SLC mice, P 388 cells implanted subcutaneously
Description: Antitumor effect to murine leukemia P388. • Test compounds: 5-FU and compound No.1 (1-(4,4-dimethyl-6-oxo-l-cyclohexenyl)methylcarbamoyl-5-fluorouracil) • Method : 1 x 10^6 leukemia P 388 cells per mouse were implanted subcutaneously to female mice (CDFl-SLC strain, 18-21 g of weight). The control and test group consisted of 3 and 1 mice respectively. The compound No.l and 5-FU were dissolved in 100% dimethylsulfoxide respectively to be adjusted to various concentrations. The solution was administered orally to each mouse once daily for 5 consecutive days, starting 24 hours after the implantation.
Average period in days of survival in the group receiving the compound of this invention (T) and average period in days of survival in the control group (C) were determined to calculate survival rates (T/C x 100%).

SMILES: O=c1[nH]cc(F)c(=O)[nH]1 [5-FU, 5-Fluorouracil]
- Survival Rate (T/C x 100) (Dose 2.7 mg/kg/inj): 101%
- Survival Rate (T/C x 100) (Dose 5.3 mg/kg/inj): 103%
- Survival Rate (T/C x 100) (Dose 10.5 mg/kg/inj): 103%
- Survival Rate (T/C x 100) (Dose 21 mg/kg/inj): 115%
- Survival Rate (T/C x 100) (Dose 42 mg/kg/inj): 64.7%
- Survival Rate (T/C x 100) (Dose 84 mg/kg/inj): 52.5%

SMILES: CC1(C)CC=C(CNC(=O)n2cc(F)c(=O)[nH]c2=O)C(=O)C1 [Compound No.1, 1-(4,4-dimethyl-6-oxo-l-cyclohexenyl)methylcarbamoyl-5-fluorouracil]
- Survival Rate (T/C x 100) (Dose 25 mg/kg/inj): 115%
- Survival Rate (T/C x 100) (Dose 50 mg/kg/inj): 129%
- Survival Rate (T/C x 100) (Dose 100 mg/kg/inj): 151%
- Survival Rate (T/C x 100) (Dose 200 mg/kg/inj): 122%
- Survival Rate (T/C x 100) (Dose 400 mg/kg/inj): 71.9%
- toxicity compared with 5-FU (conclusion from the dose range in the P388 mouse model, oral): less toxic than 5-FU
